{"source": "the NIST ThermoML archive (doi:10.1016/j.fluid.2013.10.038)", "test": "excess molar enthalpy (molar enthalpy of mixing); xn = mol fraction of the nth substance listed", "conditions": "Liquid, Flow calorimetry", "note": "Numbers after ± are expanded uncertainties."}
{"smiles": "CCOC(C)=O", "note": "[ethyl acetate] + O=C=O", "values": [{"measurement": "excess molar enthalpy", "setting": "298.15 K, 5000 kPa, x2 = 0.099", "value": "-0.284 ± 0.00837", "unit": "kcal/mol"}, {"measurement": "excess molar enthalpy", "setting": "298.15 K, 5000 kPa, x2 = 0.199", "value": "-0.567 ± 0.0134", "unit": "kcal/mol"}, {"measurement": "excess molar enthalpy", "setting": "298.15 K, 5000 kPa, x2 = 0.3", "value": "-0.837 ± 0.0186", "unit": "kcal/mol"}, {"measurement": "excess molar enthalpy", "setting": "298.15 K, 5000 kPa, x2 = 0.4", "value": "-1.11 ± 0.0239", "unit": "kcal/mol"}, {"measurement": "excess molar enthalpy", "setting": "298.15 K, 5000 kPa, x2 = 0.5", "value": "-1.37 ± 0.0287", "unit": "kcal/mol"}, {"measurement": "excess molar enthalpy", "setting": "298.15 K, 6000 kPa, x2 = 0.101", "value": "-0.251 ± 0.00837", "unit": "kcal/mol"}, {"measurement": "excess molar enthalpy", "setting": "298.15 K, 6000 kPa, x2 = 0.2", "value": "-0.512 ± 0.0127", "unit": "kcal/mol"}, {"measurement": "excess molar enthalpy", "setting": "298.15 K, 6000 kPa, x2 = 0.3", "value": "-0.757 ± 0.0179", "unit": "kcal/mol"}, {"measurement": "excess molar enthalpy", "setting": "298.15 K, 6000 kPa, x2 = 0.399", "value": "-0.984 ± 0.0229", "unit": "kcal/mol"}, {"measurement": "excess molar enthalpy", "setting": "298.15 K, 6000 kPa, x2 = 0.5", "value": "-1.21 ± 0.0263", "unit": "kcal/mol"}, {"measurement": "excess molar enthalpy", "setting": "298.15 K, 7000 kPa, x2 = 0.1", "value": "-0.0915 ± 0.00406", "unit": "kcal/mol"}, {"measurement": "excess molar enthalpy", "setting": "298.15 K, 7000 kPa, x2 = 0.2", "value": "-0.167 ± 0.00813", "unit": "kcal/mol"}, {"measurement": "excess molar enthalpy", "setting": "298.15 K, 7000 kPa, x2 = 0.299", "value": "-0.239 ± 0.0117", "unit": "kcal/mol"}, {"measurement": "excess molar enthalpy", "setting": "298.15 K, 7000 kPa, x2 = 0.4", "value": "-0.304 ± 0.0153", "unit": "kcal/mol"}, {"measurement": "excess molar enthalpy", "setting": "303.15 K, 5000 kPa, x2 = 0.099", "value": "-0.294 ± 0.00837", "unit": "kcal/mol"}, {"measurement": "excess molar enthalpy", "setting": "303.15 K, 5000 kPa, x2 = 0.199", "value": "-0.582 ± 0.0136", "unit": "kcal/mol"}, {"measurement": "excess molar enthalpy", "setting": "303.15 K, 5000 kPa, x2 = 0.3", "value": "-0.87 ± 0.0194", "unit": "kcal/mol"}, {"measurement": "excess molar enthalpy", "setting": "303.15 K, 5000 kPa, x2 = 0.4", "value": "-1.14 ± 0.0239", "unit": "kcal/mol"}, {"measurement": "excess molar enthalpy", "setting": "303.15 K, 6000 kPa, x2 = 0.101", "value": "-0.275 ± 0.00813", "unit": "kcal/mol"}, {"measurement": "excess molar enthalpy", "setting": "303.15 K, 6000 kPa, x2 = 0.2", "value": "-0.535 ± 0.0127", "unit": "kcal/mol"}, {"measurement": "excess molar enthalpy", "setting": "303.15 K, 6000 kPa, x2 = 0.3", "value": "-0.793 ± 0.0177", "unit": "kcal/mol"}, {"measurement": "excess molar enthalpy", "setting": "303.15 K, 6000 kPa, x2 = 0.399", "value": "-1.04 ± 0.0227", "unit": "kcal/mol"}, {"measurement": "excess molar enthalpy", "setting": "303.15 K, 6000 kPa, x2 = 0.5", "value": "-1.27 ± 0.0287", "unit": "kcal/mol"}, {"measurement": "excess molar enthalpy", "setting": "303.15 K, 7000 kPa, x2 = 0.1", "value": "-0.216 ± 0.00717", "unit": "kcal/mol"}, {"measurement": "excess molar enthalpy", "setting": "303.15 K, 7000 kPa, x2 = 0.2", "value": "-0.432 ± 0.0105", "unit": "kcal/mol"}, {"measurement": "excess molar enthalpy", "setting": "303.15 K, 7000 kPa, x2 = 0.299", "value": "-0.647 ± 0.0151", "unit": "kcal/mol"}, {"measurement": "excess molar enthalpy", "setting": "303.15 K, 7000 kPa, x2 = 0.4", "value": "-0.849 ± 0.0194", "unit": "kcal/mol"}, {"measurement": "excess molar enthalpy", "setting": "303.15 K, 7000 kPa, x2 = 0.5", "value": "-1.02 ± 0.0225", "unit": "kcal/mol"}, {"measurement": "excess molar enthalpy", "setting": "308.15 K, 5000 kPa, x2 = 0.099", "value": "-0.346 ± 0.0086", "unit": "kcal/mol"}, {"measurement": "excess molar enthalpy", "setting": "308.15 K, 5000 kPa, x2 = 0.199", "value": "-0.556 ± 0.0129", "unit": "kcal/mol"}, {"measurement": "excess molar enthalpy", "setting": "308.15 K, 5000 kPa, x2 = 0.3", "value": "-0.839 ± 0.0186", "unit": "kcal/mol"}, {"measurement": "excess molar enthalpy", "setting": "308.15 K, 5000 kPa, x2 = 0.4", "value": "-1.1 ± 0.0239", "unit": "kcal/mol"}, {"measurement": "excess molar enthalpy", "setting": "308.15 K, 6000 kPa, x2 = 0.101", "value": "-0.274 ± 0.00789", "unit": "kcal/mol"}, {"measurement": "excess molar enthalpy", "setting": "308.15 K, 6000 kPa, x2 = 0.2", "value": "-0.543 ± 0.0127", "unit": "kcal/mol"}, {"measurement": "excess molar enthalpy", "setting": "308.15 K, 6000 kPa, x2 = 0.3", "value": "-0.791 ± 0.0177", "unit": "kcal/mol"}, {"measurement": "excess molar enthalpy", "setting": "308.15 K, 6000 kPa, x2 = 0.399", "value": "-1.05 ± 0.0229", "unit": "kcal/mol"}, {"measurement": "excess molar enthalpy", "setting": "308.15 K, 7000 kPa, x2 = 0.1", "value": "-0.238 ± 0.00693", "unit": "kcal/mol"}, {"measurement": "excess molar enthalpy", "setting": "308.15 K, 7000 kPa, x2 = 0.2", "value": "-0.473 ± 0.0112", "unit": "kcal/mol"}, {"measurement": "excess molar enthalpy", "setting": "308.15 K, 7000 kPa, x2 = 0.299", "value": "-0.709 ± 0.0158", "unit": "kcal/mol"}, {"measurement": "excess molar enthalpy", "setting": "308.15 K, 7000 kPa, x2 = 0.4", "value": "-0.928 ± 0.0203", "unit": "kcal/mol"}, {"measurement": "excess molar enthalpy", "setting": "308.15 K, 7000 kPa, x2 = 0.5", "value": "-1.13 ± 0.0239", "unit": "kcal/mol"}]}
